# Where two headings read alike, the source gives them in different places. Marks after values point to notes of the source that are not given here.
# Tests used:
# [1] = tested on: CYP2C19-expressing TK6 cells; assay: TK and HPRT gene mutation assays in CYP2C19-expressing TK6 cells; type: cell-based, human; details: 4-h treatment
# hamster V79 cells = details: without exogenous activation; ref Brambilla et al., 1989; cited from earlier work
# TK6 cells [2] = assay: TK and HPRT gene mutation assays in TK6 cells with hamster liver S9
# TK6 cells [3] = assay: In vitro micronucleus assay in TK6 cells; details: for %MN frequency with hamster liver S9: 4-h (2% S9) and 24-h (0.4% S9) treatments
# TK6 cells [4] = details: up to 10 mM; 1% rat liver S9; ref Liviac et al., 2011; cited from earlier work
# TK6 cells [5] = details: 2% Aroclor-1254-induced rat liver S9; ref Bernacki et al., 2016; cited from earlier work
# [6] = tested on: primary human hepatocytes; details: 10 μM to 100 μM; 20-h exposure; ref Robbiano et al., 1991; cited from earlier work
# 3D HepaRG spheroids = details: 24 h; 3D cultures
# TA1537 = details: 0–200 μg/plate
# tester strains = details: preliminary study; these concentrations and above
# [7] = tested on: TK6 cells transduced with CYP2E1; details: up to 10 μM; 24 h
# [8] = tested on: TK6 cells transduced with CYP2A6; details: up to 10 μM; 24 h
# TA100 = details: for BMD50L / BMD50U: CES 0.5
# [9] = tested on: TK6 cells transduced with CYP3A4; details: up to 10 μM; 24 h
# 2D HepaRG cells = details: 24 h; 2D cultures
# HepG2 cells = details: 24 h without exogenous metabolism, additional 16 h
# primary rat hepatocytes = details: 10 μM to 100 μM; 20-h exposure; ref Robbiano et al., 1991; cited from earlier work
# TA1535 = details: for BMD50L / BMD50U: CES 0.5
# [10] = tested on: hepatocytes of Sprague-Dawley rats; details: single dose of 1000 mg/kg; ref Martelli et al., 1994; cited from earlier work
# [11] = tested on: tester strains TA98 or TA100; details: 1 mg/plate; Aroclor 1254-induced rat liver S9; ref Zhang et al., 1983; cited from earlier work
# TA98 = details: for BMD50L / BMD50U: CES 0.5
# [12] = tested on: TK6 cells transduced with CYP2D6; details: up to 10 μM; 24 h
# WP2 uvrA (pKM101) = details: 0–200 μg/plate
# [13] = tested on: CYP2C19-expressing TK6 cells; details: 4- and 24-h exposures
# [14] = tested on: tester strains TA1535, TA1537, TA1538, TA92, TA98, and TA100; details: maximum concentration 1.4 μmol/plate (404 μg/plate); with and without Aroclor 1254-induced rat liver S9; ref Raisfeld-Danse and Chen, 1983; cited from earlier work
# [15] = tested on: TK6 cells transduced with CYP2C8; details: up to 10 μM; 24 h
# [16] = tested on: CYP2C19-expressing HepG2 cells; details: 24 h without exogenous metabolism, additional 16 h
# TK6 cells [17] = assay: In vitro MultiFlow DNA damage assay in TK6 cells
# [18] = tested on: TK6 cells transduced with CYP2C19; details: 24 h without exogenous metabolism
# [19] = 100 μM, 4-h treatment, TK6 cells with 1% hamster liver S9
# [20] = 50 μM, 4-h treatment, TK6 cells with 1% hamster liver S9
# [21] = 200 μM, 4-h treatment, TK6 cells with 1% hamster liver S9
# [22] = 300 μM, 4-h treatment, TK6 cells with 1% hamster liver S9
# [23] = 0–200 μg/plate, S9 activation required
# [24] = 10% hamster liver S9, preincubation 30 min
# [25] = 10% hamster liver S9, preincubation 60 min
# [26] = 10% rat liver S9, preincubation 30 min
# [27] = 10% rat liver S9, preincubation 60 min
# [28] = 30% hamster liver S9, preincubation 30 min
# [29] = 30% hamster liver S9, preincubation 60 min
# [30] = 30% rat liver S9, preincubation 30 min
# [31] = 30% rat liver S9, preincubation 60 min
# [32] = without S9, preincubation 30 min
# [33] = without S9, preincubation 60 min
# [34] = TA98, 10% hamster liver S9, preincubation 30 min
# [35] = TA98, 10% hamster liver S9, preincubation 60 min
# [36] = TA98, 10% rat liver S9, preincubation 30 min
# [37] = TA98, 10% rat liver S9, preincubation 60 min
# [38] = TA98, 30% hamster liver S9, preincubation 30 min
# [39] = TA98, 30% hamster liver S9, preincubation 60 min
# [40] = TA98, 30% rat liver S9, preincubation 30 min
# [41] = TA98, 30% rat liver S9, preincubation 60 min
# [42] = TA98, without S9, preincubation 30 min
# [43] = TA98, without S9, preincubation 60 min
smiles,measurement,setting,value
"O=[N+]([O-])c1cc[n+]([O-])c2ccccc12 [4NQO, reference compound]",HPRT gene MF,[1]; 0.1 μg/mL (positive control),34.1^c × 10^−6
same,Relative survival (%),[1]; 0.1 μg/mL (positive control),59.9%
same,TK gene MF,[1]; 0.1 μg/mL (positive control),69.2^c × 10^−6
CN(N=O)C1=Nc2ccc(Cl)cc2C(c2ccccc2)=[N+]([O-])C1 [N-nitroso chlordiazepoxide],HPRT mutations,hamster V79 cells,induce concentration-dependent HPRT mutations
"CCN(CC)N=O [NDEA, N-nitrosodiethylamine, reference compound]",HPRT gene MF,TK6 cells [2]; [19],23.1^c × 10^−6
same,Relative survival (%),TK6 cells [2]; [19],66.9%
same,TK gene MF,TK6 cells [2]; [19],44.2^c × 10^−6
same,%MN frequency with hamster liver S9,TK6 cells [3],induced MN
same,MN formation,TK6 cells [4],did not induce MN formation
same,Genotoxic or cytotoxic responses,TK6 cells [5],failed to biotransform NDEA to produce any genotoxic or cytotoxic responses
"CC(C)N(CC(O)COc1cccc2ccccc12)N=O (stereo not drawn) [NNP, N-nitroso propranolol]",DNA fragmentation and unscheduled DNA synthesis (UDS),[6],concentration-dependent increase
same,Lowest concentration that induced positive responses (Comet),3D HepaRG spheroids,25 µM
same,Mutagenic response in the Ames test (overall),TA1537,negative
same,HPRT gene MF,TK6 cells [2]; [20],4.2^c × 10^−6
same,TK gene MF,TK6 cells [2]; [20],15.5^c × 10^−6
same,HPRT gene MF,TK6 cells [2]; [19],7.0^c × 10^−6
same,TK gene MF,TK6 cells [2]; [19],21.8^c × 10^−6
same,HPRT gene MF,TK6 cells [2]; [21],3.2^c × 10^−6
same,TK gene MF,TK6 cells [2]; [21],17.8^c × 10^−6
same,HPRT gene MF,TK6 cells [2]; [22],2.6^c × 10^−6
same,TK gene MF,TK6 cells [2]; [22],16.5^c × 10^−6
same,Concentrations producing overt cytotoxicity,"TK6 cells [2]; preliminary concentration range-finding study, 1% hamster liver S9, 4 h",≥ 400 µM
same,%MN frequency with hamster liver S9,TK6 cells [3],concentration-dependent increase
same,Cytotoxicity after metabolic activation by hamster liver S9,TK6 cells [3]; 4-h and 24-h treatments,displayed cytotoxicity
same,Effect on %MN and cytotoxicity,"TK6 cells [3]; non-CYP-transduced TK6 cells, up to 10 μM, 24 h",no effect
same,MN formation over vehicle controls,"TK6 cells [3]; without exogenous metabolism, up to 100 μM, 24 h",did not result in any increase in MN formation
same,Concentrations with considerable toxicity in the Ames test,tester strains,100–500 μg/plate
same,Effect on %MN and cytotoxicity,[7],no effect
same,Effect on %MN and cytotoxicity,[8],no effect
same,Mutagenic response in the Ames test (overall),TA100; [23],positive mutagenic responses
same,BMD50L,TA100; [24],5.9 μg/plate
same,BMD50U,TA100; [24],21.1 μg/plate
same,BMD50L,TA100; [25],14.1 μg/plate
same,BMD50U,TA100; [25],34.4 μg/plate
same,BMD50L,TA100; [26],Negative
same,BMD50L,TA100; [27],Negative
same,BMD50L,TA100; [28],7.3 μg/plate
same,BMD50U,TA100; [28],19.9 μg/plate
same,BMD50L,TA100; [29],24.7 μg/plate
same,BMD50U,TA100; [29],62.2 μg/plate
same,BMD50L,TA100; [30],Negative
same,BMD50L,TA100; [31],Negative
same,BMD50L,TA100; [32],Negative
same,BMD50L,TA100; [33],Negative
same,Effect on %MN and cytotoxicity,[9],no effect
same,Lowest concentration that induced positive responses (Comet),2D HepaRG cells,50 µM
same,Cytotoxicity or MN formation,HepG2 cells,did not cause any cytotoxicity or MN formation
same,DNA fragmentation and unscheduled DNA synthesis (UDS),primary rat hepatocytes,concentration-dependent increase
same,Mutagenic response in the Ames test (overall),TA1535; [23],positive mutagenic responses
same,BMD50L,TA1535; [24],0.9 μg/plate
same,BMD50U,TA1535; [24],3.4 μg/plate
same,BMD50L,TA1535; [25],2.1 μg/plate
same,BMD50U,TA1535; [25],6.5 μg/plate
same,BMD50L,TA1535; [26],36.1 μg/plate
same,BMD50U,TA1535; [26],108.0 μg/plate
same,BMD50L,TA1535; [27],Negative
same,BMD50L,TA1535; [28],2.3 μg/plate
same,BMD50U,TA1535; [28],7.7 μg/plate
same,BMD50L,TA1535; [29],2.5 μg/plate
same,BMD50U,TA1535; [29],7.1 μg/plate
same,BMD50L,TA1535; [30],Negative
same,BMD50L,TA1535; [31],Negative
same,BMD50L,TA1535; [32],Negative
same,BMD50L,TA1535; [33],Negative
same,Micronucleus (MN) formation in hepatocytes,[10],induced micronucleus (MN) formation
same,HPRT gene MF,"[1]; 0.0625 μM, no S9",4.5^c × 10^−6
same,TK gene MF,"[1]; 0.0625 μM, no S9",13.2 × 10^−6
same,HPRT gene MF,"[1]; 0.125 μM, no S9",6.5^c × 10^−6
same,TK gene MF,"[1]; 0.125 μM, no S9",18.6^c × 10^−6
same,HPRT gene MF,"[1]; 0.5 μM, no S9",23.0^c × 10^−6
same,TK gene MF,"[1]; 0.5 μM, no S9",28.5^c × 10^−6
same,Mutations in the Ames test,[11],did not induce mutations
same,Mutagenic response in the Ames test (overall),"TA98; TA98, 0–200 μg/plate, preincubation method",mutagenic both in the presence and absence of S9
same,BMD50L,TA98; [34],5.7 μg/plate
same,BMD50U,TA98; [34],10.1 μg/plate
same,BMD50L,TA98; [35],6.9 μg/plate
same,BMD50U,TA98; [35],14.5 μg/plate
same,BMD50L,TA98; [36],7.9 μg/plate
same,BMD50U,TA98; [36],13.0 μg/plate
same,BMD50L,TA98; [37],7.2 μg/plate
same,BMD50U,TA98; [37],11.5 μg/plate
same,BMD50L,TA98; [38],12.8 μg/plate
same,BMD50U,TA98; [38],21.4 μg/plate
same,BMD50L,TA98; [39],18.3 μg/plate
same,BMD50U,TA98; [39],30.3 μg/plate
same,BMD50L,TA98; [40],16.2 μg/plate
same,BMD50U,TA98; [40],27.0 μg/plate
same,BMD50L,TA98; [41],22.4 μg/plate
same,BMD50U,TA98; [41],36.8 μg/plate
same,BMD50L,TA98; [42],9.8 μg/plate
same,BMD50U,TA98; [42],24.7 μg/plate
same,BMD50L,TA98; [43],9.3 μg/plate
same,BMD50U,TA98; [43],15.4 μg/plate
same,Solvent effect on mutagenicity in TA98,"TA98; dissolved in acetone, methanol, or DMSO",very similar mutational responses
same,Effect on %MN and cytotoxicity,[12],no effect
same,Mutagenic response in the Ames test (overall),WP2 uvrA (pKM101),negative
same,Nuclear P53,[13],only caused increases in nuclear P53 after 24 h
same,Mutagenicity in the Ames test,[14],negative
same,Effect on %MN and cytotoxicity,[15],no effect
same,%MN,[16],concentration-dependent increase
same,Lowest observed adverse effect level (LOAEL) for %MN,[16],2 µM
same,γH2A.X,TK6 cells [17]; 4-h treatment with 2% hamster S9,concentration-dependent increase
same,γH2A.X,"TK6 cells [17]; 24-h treatment with 0.4% hamster S9, 10 μM (highest concentration, cytotoxic)",level decreased
same,γH2A.X,"TK6 cells [17]; 24-h treatment with 0.4% hamster S9, 2.5 and 5.0 μM",induced increases
same,Phosphorylation of histone H3 (aneugen marker),TK6 cells [17]; data not shown,did not increase
same,γH2A.X fluorescence,TK6 cells [17]; without S9,did not induce any increase
same,γH2A.X compared to the vehicle control,"TK6 cells [17]; without S9, 100 μM",statistically significant decrease
same,Lowest concentration causing a statistically significant increase in %MN,[18],0.0625 µM

# From article PMC11393638 (Regulatory toxicology and pharmacology : RTP, 2023)
